Reference: patent US12180187B2, “1-phenyl-5-azinylpyrazolyl-3-oxyalkyl acids and their use for controlling unwanted plant growth” (BAYER AKTIENGESELLSCHAFT, priority 2019, dated 2024)

What was measured:
LOLRI [1] = test: Post-emergence action against LOLRI, 1.28 kg/ha; format: in vivo, Lolium rigidum; settings: dosage 1280 g/ha, visual rating about 3 weeks after treatment vs untreated controls
Method in brief: (§1)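 Percent activity was scored visually ~3 wk post-spray relative to untreated plants. Treatment was post-emergence at the one-leaf stage using WP/EC in water with 0.5% additive (600 L/ha).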

SETVI [2] = test: Pre-emergence action against SETVI, 1280 g/ha; format: in vivo, Setaria viridis; settings: visual scoring after about 3 weeks vs untreated controls, 100% = plants have died, 0% = like control plants
Method in brief: (§2)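 Percent herbicidal effect, judged by eye relative to untreated pots around 3 weeks after soil-surface treatment. Application: formulated compound in water, 600 L/ha, 0.5% additive, on soil over sown seeds; greenhouse.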

LOLRI [3] = test: Pre-emergence action against LOLRI, 1280 g/ha; format: in vivo, Lolium rigidum; settings: visual scoring after about 3 weeks vs untreated controls, 100% = plants have died, 0% = like control plants
Method in brief: as §2

STEME [4] = test: Post-emergence action against STEME, 1.28 kg/ha; format: in vivo, Stellaria media; settings: dosage 1280 g/ha, visual rating about 3 weeks after treatment vs untreated controls (100% = plants died)
Method in brief: as §1

KCHSC [5] = test: Pre-emergence action against KCHSC, 1280 g/ha; format: in vivo, Bassia scoparia; settings: scored visually after about 3 weeks vs untreated controls (100% = plants have died)
Method in brief: as §2

ECHCG [6] = test: Post-emergence action against ECHCG, 1.28 kg/ha; format: in vivo, Echinochloa crus-galli; settings: dosage 1280 g/ha, visual rating about 3 weeks after treatment vs untreated controls
Method in brief: as §1

SETVI [7] = test: Post-emergence action against SETVI, 1.28 kg/ha; format: in vivo, Setaria viridis; settings: dosage 1280 g/ha, visual rating about 3 weeks after treatment vs untreated controls
Method in brief: as §1

AMARE [8] = test: Pre-emergence action against AMARE, 1280 g/ha; format: in vivo, Amaranthus retroflexus; settings: scored visually after about 3 weeks vs untreated controls (100% = plants have died)
Method in brief: as §2

MATIN [9] = test: Pre-emergence action against MATIN, 1280 g/ha; format: in vivo, Tripleurospermum inodorum (Matricaria inodora); settings: scored visually after about 3 weeks vs untreated controls (100% = plants have died)
Method in brief: as §2

ALOMY [10] = test: Pre-emergence action against ALOMY, 1280 g/ha; format: in vivo, Alopecurus myosuroides; settings: visual scoring after about 3 weeks vs untreated controls, 100% = plants have died, 0% = like control plants
Method in brief: as §2

ALOMY [11] = test: Post-emergence action against ALOMY, 1.28 kg/ha; format: in vivo, Alopecurus myosuroides; settings: dosage 1280 g/ha, visual rating about 3 weeks after treatment vs untreated controls
Method in brief: as §1

DIGSA [12] = test: Pre-emergence action against DIGSA, 1280 g/ha; format: in vivo, Digitaria sanguinalis; settings: visual scoring after about 3 weeks vs untreated controls, 100% = plants have died, 0% = like control plants
Method in brief: as §2

MATIN [13] = test: Post-emergence action against MATIN, 1.28 kg/ha; format: in vivo, Tripleurospermum inodorum (Matricaria inodora); settings: dosage 1280 g/ha, visual rating about 3 weeks after treatment vs untreated controls (100% = plants died)
Method in brief: as §1

STEME [14] = test: Pre-emergence action against STEME, 1280 g/ha; format: in vivo, Stellaria media; settings: scored visually after about 3 weeks vs untreated controls (100% = plants have died)
Method in brief: as §2

POAAN [15] = test: Post-emergence action against POAAN, 1.28 kg/ha; format: in vivo, Poa annua; settings: dosage 1280 g/ha, visual rating about 3 weeks after treatment vs untreated controls
Method in brief: as §1

VERPE [16] = test: Post-emergence action against VERPE, 1.28 kg/ha; format: in vivo, Veronica persica; settings: dosage 1280 g/ha, visual rating about 3 weeks after treatment vs untreated controls (100% = plants died)
Method in brief: as §1

KCHSC [17] = test: Post-emergence action against KCHSC, 1.28 kg/ha; format: in vivo, Bassia scoparia; settings: dosage 1280 g/ha, visual rating about 3 weeks after treatment vs untreated controls (100% = plants died)
Method in brief: as §1

DIGSA [18] = test: Post-emergence action against DIGSA, 1.28 kg/ha; format: in vivo, Digitaria sanguinalis; settings: dosage 1280 g/ha, visual rating about 3 weeks after treatment vs untreated controls
Method in brief: as §1

POAAN [19] = test: Pre-emergence action against POAAN, 1280 g/ha; format: in vivo, Poa annua; settings: visual scoring after about 3 weeks vs untreated controls, 100% = plants have died, 0% = like control plants
Method in brief: as §2

VERPE [20] = test: Pre-emergence action against VERPE, 1280 g/ha; format: in vivo, Veronica persica; settings: scored visually after about 3 weeks vs untreated controls (100% = plants have died)
Method in brief: as §2

ECHCG [21] = test: Pre-emergence action against ECHCG, 1280 g/ha; format: in vivo, Echinochloa crus-galli; settings: visual scoring after about 3 weeks vs untreated controls, 100% = plants have died, 0% = like control plants
Method in brief: as §2

AMARE [22] = test: Post-emergence action against AMARE, 1.28 kg/ha; format: in vivo, Amaranthus retroflexus; settings: dosage 1280 g/ha, visual rating about 3 weeks after treatment vs untreated controls (100% = plants died)
Method in brief: as §1

ABUTH = test: Post-emergence action against ABUTH, 1.28 kg/ha; format: in vivo, Abutilon theophrasti; settings: dosage 1280 g/ha, visual rating about 3 weeks after treatment vs untreated controls (100% = plants died)
Method in brief: as §1

Compound | Post-emergence action against LOLRI (LOLRI [1]) [%] | Pre-emergence action against SETVI (SETVI [2]) [%] | Pre-emergence action against LOLRI (LOLRI [3]) [%] | Post-emergence action against STEME (STEME [4]) [%] | Pre-emergence action against KCHSC (KCHSC [5]) [%] | Post-emergence action against ECHCG (ECHCG [6]) [%] | Post-emergence action against SETVI (SETVI [7]) [%] | Pre-emergence action against AMARE (AMARE [8]) [%] | Pre-emergence action against MATIN (MATIN [9]) [%] | Post-emergence action against ALOMY (ALOMY [11]) [%] | Pre-emergence action against DIGSA (DIGSA [12]) [%] | Post-emergence action against MATIN (MATIN [13]) [%] | Pre-emergence action against STEME (STEME [14]) [%] | Post-emergence action against POAAN (POAAN [15]) [%] | Post-emergence action against VERPE (VERPE [16]) [%] | Post-emergence action against KCHSC (KCHSC [17]) [%] | Post-emergence action against DIGSA (DIGSA [18]) [%] | Pre-emergence action against POAAN (POAAN [19]) [%] | Pre-emergence action against VERPE (VERPE [20]) [%] | Post-emergence action against AMARE (AMARE [22]) [%] | also measured
O=C(O)COc1nn(-c2ccc(F)cc2)c(-c2ccc(F)nc2)c1Br [VII-095] | 100 | 100 | 100 | 90 | 100 | 100 | 100 | 100 | 90 | 100 | 100 | 100 | 100 | 100 | 90 | 100 | 100 | 100 | 100 | 90 | Pre-emergence action against ALOMY (ALOMY [10]): 100%; Pre-emergence action against ECHCG (ECHCG [21]): 100%
O=C(O)COc1nn(-c2ccc(F)cc2F)c(-c2ccc(F)nc2)c1Br [VII-100] | 100 | 90 | 100 | 100 | 100 | 90 | 100 | 100 | 100 | 100 | 90 | 90 | 100 | 100 | 100 | 90 | 90 | 100 | 100 | 100 | Post-emergence action against ABUTH (ABUTH): 90%
CCOC(=O)COc1nn(-c2ccc(F)cc2F)c(-c2ccc(F)nc2)c1Br [VII-101] | 100 | 100 | 100 | 100 | 100 | 100 | 100 | 100 | 100 | 100 | 100 | 100 | 100 | 100 | 100 | 90 | 100 | 100 | 100 | 90 | Post-emergence action against ABUTH (ABUTH): 90%; Pre-emergence action against ALOMY (ALOMY [10]): 100%; Pre-emergence action against ECHCG (ECHCG [21]): 90%
